What was measured:
[1] = molecular target: Carbonic anhydrase 1 (Homo sapiens, UniProt P00915); assay: Inhibition of recombinant human carbonic anhydrase-1 assessed as reduction in CO2 hydration preincubated for 10 mins measured for 5 to 10 secs by stopped flow assay
[2] = molecular target: Carbonic anhydrase 9 (Homo sapiens, UniProt Q16790)
Description: Inhibition of recombinant human carbonic anhydrase-9 assessed as reduction in CO2 hydration preincubated for 10 mins measured for 5 to 10 secs by stopped flow assay

[3] = molecular target: Carbonic anhydrase 2 (Homo sapiens, UniProt P00918); assay: Inhibition of recombinant human carbonic anhydrase-2 assessed as reduction in CO2 hydration preincubated for 10 mins measured for 5 to 10 secs by stopped flow assay
[4] = molecular target: Carbonic anhydrase 12 (Homo sapiens, UniProt O43570); assay: Inhibition of recombinant human carbonic anhydrase-12 assessed as reduction in CO2 hydration preincubated for 10 mins measured for 5 to 10 secs by stopped flow assay
Carbonic anhydrase 12, sequence (O43570 whole entry): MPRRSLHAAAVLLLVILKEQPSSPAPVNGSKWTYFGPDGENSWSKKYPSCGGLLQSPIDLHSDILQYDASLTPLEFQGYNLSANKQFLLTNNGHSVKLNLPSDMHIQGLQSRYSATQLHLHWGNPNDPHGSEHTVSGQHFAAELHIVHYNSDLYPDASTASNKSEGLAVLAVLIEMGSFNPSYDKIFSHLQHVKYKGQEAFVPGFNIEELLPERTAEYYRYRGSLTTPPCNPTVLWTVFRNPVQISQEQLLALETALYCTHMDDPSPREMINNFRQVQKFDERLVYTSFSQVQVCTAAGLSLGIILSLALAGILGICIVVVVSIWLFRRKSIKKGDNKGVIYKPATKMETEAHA

Carbonic anhydrase 1, sequence (P00915 whole entry): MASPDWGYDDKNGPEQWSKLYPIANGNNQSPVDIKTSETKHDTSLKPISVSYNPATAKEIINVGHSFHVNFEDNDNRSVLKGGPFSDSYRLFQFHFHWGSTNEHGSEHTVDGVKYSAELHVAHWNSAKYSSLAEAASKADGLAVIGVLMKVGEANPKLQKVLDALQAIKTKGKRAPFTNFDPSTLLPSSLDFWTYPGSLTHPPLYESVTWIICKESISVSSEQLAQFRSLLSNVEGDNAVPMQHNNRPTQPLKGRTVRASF

| Ki [1] [nM] | Ki [2] [nM] | Ki [3] [nM] | Ki [4] [nM] | SMILES |
| --- | --- | --- | --- | --- |
| > 10000 | 563 | > 10000 | – | CC#CCN1C(=O)c2ccccc2S1(=O)=O |
| > 10000 | 277 | – | – | O=C(O)c1ccccc1S(=O)(=O)NCc1ccc(Br)cc1 |
| > 10000 | 392 | > 10000 | – | CCCCCNS(=O)(=O)c1ccccc1C(=O)O |
| > 10000 | 209 | > 10000 | – | CCCN1C(=O)c2ccccc2S1(=O)=O |
| > 10000 | 481 | > 10000 | – | CCCNS(=O)(=O)c1ccccc1C(=O)O |
| > 10000 | 342 | – | – | O=C(O)c1ccccc1S(=O)(=O)NCc1ccccc1 |
| > 10000 | 76.1 | > 10000 | 10.4 | O=C1c2ccccc2S(=O)(=O)N1CCc1ccccc1 |
| > 10000 | 236 | > 10000 | – | CCN1C(=O)c2ccccc2S1(=O)=O |
| > 10000 | 250 | > 10000 | – | CC#CCNS(=O)(=O)c1ccccc1C(=O)O |
| > 10000 | 436 | > 10000 | – | CCCCNS(=O)(=O)c1ccccc1C(=O)O |
| > 10000 | 102 | > 10000 | 34 | CCCCCN1C(=O)c2ccccc2S1(=O)=O |
| > 10000 | 89.2 | > 10000 | – | O=C1c2ccccc2S(=O)(=O)N1Cc1ccccc1 |
| > 10000 | 164 | > 10000 | – | CCCCN1C(=O)c2ccccc2S1(=O)=O |
